In one assay the target is T1, α-Glucosidase (yeast) (Saccharomyces cerevisiae, UniProt P53341).
T1 construct: purchased Sigma
Nature of the assay: Alpha-glucosidase (yeast) inhibition assay, pH 7.4. It counts as biochemical. The following applies: pH 7.4, read-out: Percent inhibition of α-glucosidase (yeast). How it is done:
(§1) Yeast alpha-glucosidase and almond beta-glucosidase activities were measured by a modification of the method of Evans, et al., Phytochemistry 22, 768-770 (1983). The modifications included (1) assay of activities at pH 7.4 in HEPES (N-2-hydroxyethylpiperazine-N'-2-ethanesulfonic acid) buffer, 2) measurement in 96 well microtiter plates and (3) inclusion of 10% DMSO in control and test samples.
(§2) The release of p-nitrophenol from the substrate p-nitrophenylglycoside was measured spectrophotometrically in the presence and absence of test compound. Each assay included a known inhibitor of the enzyme as a standard. IC50 values were determined for compounds which inhibited the enzymes more than 50% at a 1 millimolar concentration.
(§3) To 100 μl 50 mM HEPES buffer, pH 7.4, in a microtiter plate, add 20 μl test compound in DMSO (DMSO alone in control), 40 μl (0.013 units) yeast alpha-glucosidase (Sigma) in HEPES buffer and pre-incubate at room temperature for 15 minutes. Add 40 μl 1.25 mM p-nitrophenyl-alpha-D-glucopyranoside (Sigma) in HEPES buffer, as substrate, and monitor absorbance change at 405 nm in a Biotek EIA Autoreader. Absorption change was measured at 15 to 25 minutes (reaction was linear for at least 30 minutes). Each sample was tested in triplicate. IC50 values were determined from the linear portion of the log concentration vs % inhibition curve obtained from a minimum of 3 points. Deoxynojirimycin was used as standard inhibitor.

Assay [1] relates to β-Glucosidase (almond). Nature of the assay: Beta-glucosidase (almond) inhibition assay, pH 7.4. It counts as biochemical. How it is done:
as §1, §2
as §3, with “μl (0.136” for “μl (0.013”, “units) beta-glucosidase” for “units) yeast alpha-glucosidase”, “mM p-nitrophenyl-beta-D-glucopyranoside” for “mM p-nitrophenyl-alpha-D-glucopyranoside (Sigma)”, “as substrate” for “as substrate,”, “(reaction is” for “(reaction was”, “points. Castanospermine” for “points. Deoxynojirimycin”

For assay [2], the system named is β-Glucosidase (almond). The experiment in a line: Beta-glucosidase (almond) inhibitor assay, pH 4.8. It counts as biochemical. Here is the method: as §1, §2
To 100 μl 50 mM sodium citrate buffer, pH 4.8, in a microtiter plate, add 15 μl test compound in DMSO (DMSO alone in control), 20 μl (0.017 units) beta-glucosidase (Sigma) in citrate buffer and pre-incubate at room temperature for 15 minutes. Add 25 μl 2.50 mM p-nitrophenyl-beta-D-glucopyranoside in citrate buffer, as substrate. Incubate at room temperature 20 minutes (reaction is linear for at least 30 minutes). Add 50 μl 0.4 M NaOH. Read absorption change at 405 nm in a Biotek EIA Autoreader. Each sample was tested in triplicate. IC50 values were determined from the linear portion of the log concentration vs % inhibition curve obtained from a minimum of 3 points. Castanospermine was used as standard inhibitor.

The subject of another assay is visna virus. Nature of the assay: Inhibition of visna virus growth, plaque reduction assay in sheep choroid plexus (SCP) cells (Method A). It counts as cell-based. As to conditions: Visna-maedi virus; for inhibition at 1 µM: 0.001 mM; for inhibition at 10 µM: 0.01 mM; for inhibition at 100 µM: 0.1 mM; for inhibition at 1000 µM: 1.0 mM. From the text:
Inhibitory activity against visna virus was shown by a conventional plaque reduction assay. Visna virus, a lentivirus genetically very similar to the AIDS virus, is pathogenic for sheep and goats. See Sonigo et al., Cell 42, 369-382 (1985); Haase, Nature 322, 130-136 (1986). Inhibition of visna virus replication in vitro as a useful model for HIV and its inhibition by test compounds has been described by Frank et al., Antimicrobial Agents and Chemotherapy 31 (9), 1369-1374 (1987).
Various illustrative compounds synthesized above were tested for inhibition of visna virus in vitro in a plaque reduction assay (Method A) or for inhibition of HIV-1 in a test which measured reduction of cyto-pathogenic effect in virus-infected syncytium-sensitive Leu-3a-positive CEM cells grown in tissue culture (Method B) as follows:
Sheep choroid plexus (SCP) cells were obtained from American Type Culture Collection (ATCC) catalogue number CRL 1700 and were routinely passaged in vitro in Dulbecco's Modified Eagles (DME) medium supplemented with 20% fetal bovine serum (FBS). SCP cells were passaged once per week at a 1:2 or 1:3 split ratio. Visna was titrated by plaque assay in six-well plates. Virus pools were stored at -70° C.
SCP cells were cultured in 6-well plates to confluence. Wells were washed two times with serum free Minimal Essential Medium (MEM) to remove FBS. 0.2 ml of virus was added per well in MEM supplemented with 4 mM glutamine and gentamycin. After 1 hour adsorption, the virus was aspirated from each well. The appropriate concentration of each compound in 5 ml of Medium 199 (M-199) supplemented with 2% lamb serum, 4 mM glutamine, 0.5% agarose and gentamycin was added to each well. Cultures were incubated at 37° C. in a humidified 5% CO2 incubator for 3-4 weeks. To terminate the test, cultures were fixed in 10% formalin, the agar removed, the monolayers stained with 1% crystal violet and plaques counted. Each compound concentration was run in triplicate. […] 0 is no toxicity observed while 4 is total lysing of the cell monolayer. […]
Control wells without virus were completed to determine the toxicity of compounds.

The results in this text go back to patent publication US5612480A, “2-chloro and 2-bromo derivatives of 1,5-iminosugars” (priority 1995, dated 1997).

T1 sequence (P53341 whole entry): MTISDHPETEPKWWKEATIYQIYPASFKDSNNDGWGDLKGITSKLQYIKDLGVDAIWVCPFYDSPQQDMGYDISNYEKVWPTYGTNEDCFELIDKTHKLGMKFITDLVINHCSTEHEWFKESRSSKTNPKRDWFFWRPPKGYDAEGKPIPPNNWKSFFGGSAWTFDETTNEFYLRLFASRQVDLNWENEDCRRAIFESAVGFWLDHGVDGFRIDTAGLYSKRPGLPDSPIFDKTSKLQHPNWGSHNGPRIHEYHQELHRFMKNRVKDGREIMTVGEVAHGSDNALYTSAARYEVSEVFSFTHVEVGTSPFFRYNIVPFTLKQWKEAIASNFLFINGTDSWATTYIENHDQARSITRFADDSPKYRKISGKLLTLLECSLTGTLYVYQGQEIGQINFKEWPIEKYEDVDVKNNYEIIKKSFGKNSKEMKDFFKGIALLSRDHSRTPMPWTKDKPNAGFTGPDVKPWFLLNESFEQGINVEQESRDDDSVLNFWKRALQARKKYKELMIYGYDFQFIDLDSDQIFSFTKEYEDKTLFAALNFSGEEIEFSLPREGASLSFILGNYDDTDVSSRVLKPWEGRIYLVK

In the case of `CCCCN1[C@H](CN)[C@@H](O)[C@H](O)[C@H]1CO` [Example 48, 1-Amino-2,5-(butylimino)-1,2,5-trideoxy-D-mannitol], the inhibition at 100 µM at α-Glucosidase (yeast) was 24.6%. Also, the inhibition at 1000 µM on α-Glucosidase (yeast) turned out to be 60.9%. In addition, the “Percent inhibition of β-glucosidase (almond)” value (“Percent inhibition” below) in the assay on β-Glucosidase (almond) [1] (100 μM) was determined as 6.9%; in the assay on β-Glucosidase (almond) [1] (1000 μM) it was 43.1%; in the assay with β-Glucosidase (almond) [2] (100 μM), 9.5%; with β-Glucosidase (almond) [2] (1000 μM), 27.9%.

In the case of `CCCCN1[C@H](CO)[C@@H](O)[C@H](O)[C@H]1CC#N` [Example 54, 3,6-(Butylimino)-2,3,6-trideoxy-D-manno-heptanonitrile], on α-Glucosidase (yeast), the inhibition at 100 µM was 23.5%. The inhibition at 1000 µM at α-Glucosidase (yeast) was 22.6%. In addition, the “Percent inhibition” value is recorded as -7.8% in the assay with β-Glucosidase (almond) [1] (100 μM), -7.9% in the assay with β-Glucosidase (almond) [1] (1000 μM), 0.1% in the assay on β-Glucosidase (almond) [2] (100 μM) and 4.1% with β-Glucosidase (almond) [2] (1000 μM).

For `OC[C@@H]1[C@@H](O)[C@H](O)[C@@H](Cl)CN1Cc1ccccc1` [Example 32, 2-Chloro-1,2,5-trideoxy-1,5-(phenylmethyl)imino-D-glucitol], in the assay with visna virus, the inhibition at 1 µM is 12%, the inhibition at 10 µM is -3% and the inhibition at 100 µM amounted to 28%.

For the compound `CCCCN1C[C@H](OC(=O)OCC(C)C)[C@@H](O)[C@H](O)[C@H]1CO` [Example 34, 1,5-(Butylimino)-1,5-dideoxy-D-glucitol, 2-[(2-methylpropyl)-carbonate]], in the assay with visna virus, the inhibition at 1 µM is -2%, the inhibition at 10 µM was found to be 7%, the inhibition at 100 µM was 89% and the inhibition at 1000 µM is 100%.

In the case of `CCCCN1C[C@H](C#N)[C@@H](O)[C@H](O)[C@H]1CO` [Example 53, 1,5-(Butylimino)-2-cyano-1,2,5-trideoxy-D-glucitol], the inhibition at 100 µM on α-Glucosidase (yeast) came out at 20.1%. Besides, the inhibition at 1000 µM at α-Glucosidase (yeast) was -29.4%. Moreover, the “Percent inhibition” value is on record as -4.2% in the assay with β-Glucosidase (almond) [1] (100 μM), -7.3% with β-Glucosidase (almond) [1] (1000 μM), 1.6% in the assay with β-Glucosidase (almond) [2] (100 μM) and 9.5% in the assay on β-Glucosidase (almond) [2] (1000 μM).

As to `CCCCN1[C@H](CO)[C@@H](O)[C@H](O)[C@H]1COC(=O)c1ccccc1` [Example 58, 2,5-(Butylimino)-2,5-dideoxy-D-mannitol, 1-benzoate], the inhibition at 100 µM on α-Glucosidase (yeast) turned out to be 36.2%. For the same compound, the inhibition at 1000 µM at α-Glucosidase (yeast) came out at 44%. For the same compound, the “Percent inhibition” value in the assay with β-Glucosidase (almond) [1] (100 μM) was -7.5%; with β-Glucosidase (almond) [1] (1000 μM) it was 13.2%; in the assay with β-Glucosidase (almond) [2] (100 μM), 1.8%; in the assay with β-Glucosidase (almond) [2] (1000 μM) it was 18.6%.

Turning to `CC(=O)OC[C@@H]1[C@@H](OC(C)=O)[C@H](OC(C)=O)[C@@H](Cl)CN1CCCc1ccccc1` [Example 39, 2-Chloro-1,2,5-trideoxy-1,5-(3-phenyl)propylimino-D-glucitol, triacetate], the inhibition at 0.5 µM in the assay with visna virus (0.0005 mM) amounted to 44%. In the assay on visna virus (0.005 mM), the inhibition at 5 µM worked out at 58%. Moreover, in the assay with visna virus (0.05 mM), the inhibition at 50 µM came to 98%.

On to `CCCCN1C[C@H](Sc2nnnn2C)[C@@H](O)[C@H](O)[C@H]1CO` [56(a), 1,5-(Butylimino)-1,5-dideoxy-2-S-(1-methyl-1H-tetrazol-5-yl) 2-thio-D-glucitol], for which the inhibition at 100 µM at α-Glucosidase (yeast) is 18.1%. Moreover, at α-Glucosidase (yeast), the inhibition at 1000 µM is -8.2%. Besides, the “Percent inhibition” value was -3.4% in the assay on β-Glucosidase (almond) [1] (100 μM), -15.8% with β-Glucosidase (almond) [1] (1000 μM), -0.9% in the assay on β-Glucosidase (almond) [2] (100 μM) and 13.7% in the assay on β-Glucosidase (almond) [2] (1000 μM).

In the case of `CCCCN1C[C@H]2O[C@H]2[C@H](OC(C)=O)[C@H]1COC(C)=O` [Example 45, 2,3-Anhydro-1,5-(butylimino)-1,5-dideoxy-D-mannitol, diacetate], in the assay with visna virus, the inhibition at 10 µM was 5%, the inhibition at 100 µM stood at 44% and the inhibition at 1000 µM turned out to be 85%.

`CCCCN1C[C@H](OC(=O)Nc2ccccc2)[C@@H](O)[C@H](O)[C@H]1CO` [Example 35]: in the assay with visna virus, the inhibition at 10 µM is 31% and the inhibition at 100 µM is 41%.

In the case of `CCCCN1C[C@H](Cl)[C@@H](OC(C)=O)[C@H](OC(C)=O)[C@H]1COC(C)=O` [Example 38, 1,5-(Butylimino)-2-chloro-1,2,5-trideoxy-D-glucitol, triacetate], in the assay with visna virus, the inhibition at 10 µM worked out at 61%, the inhibition at 100 µM was 86% and the inhibition at 1000 µM worked out at 97%.

Consider `CCCCN1[C@H](CO)[C@@H](O)[C@H](O)[C@H]1CSc1nnnn1C` [56(b), 2,5-(Butylimino)-2,5-dideoxy-1S-(1-methyl-1H-tetrazol-5-yl) 1-thio-D-mannitol], for which the inhibition at 100 µM at α-Glucosidase (yeast) is 15.6%. Moreover, the inhibition at 1000 µM at α-Glucosidase (yeast) turned out to be 15.7%. In addition, the “Percent inhibition” value is on record as -6% in the assay on β-Glucosidase (almond) [1] (100 μM), 5.7% in the assay with β-Glucosidase (almond) [1] (1000 μM), 7.5% in the assay on β-Glucosidase (almond) [2] (100 μM) and 29.4% in the assay with β-Glucosidase (almond) [2] (1000 μM).

In the case of `CCCCN1C[C@H](Cl)[C@@H](OC(=O)CCC)[C@H](OC(=O)CCC)[C@H]1COC(=O)CCC` [Example 40, 1,5-(Butylimino)-2-chloro-1,2,5-trideoxy-D-glucitrol, tributyrate], in the assay on visna virus, the inhibition at 1 µM came to 0%, the inhibition at 10 µM was 24% and the inhibition at 100 µM worked out at 77%.

As for `CCCCN1[C@H](CO)[C@@H](O)[C@H](O)[C@H]1CNC(C)=O` [Example 51, 1-(Acetylamino)-2,5-(butylimino)-1,2,5-trideoxy-D-mannitol], on α-Glucosidase (yeast), the inhibition at 100 µM stood at 27.1%. The inhibition at 1000 µM at α-Glucosidase (yeast) turned out to be 39.3%. In addition, the “Percent inhibition” value is listed as -3.8% in the assay with β-Glucosidase (almond) [1] (100 μM), 4.4% with β-Glucosidase (almond) [1] (1000 μM), 6% with β-Glucosidase (almond) [2] (100 μM) and 26% in the assay with β-Glucosidase (almond) [2] (1000 μM).

Consider `CCCCN(CCCC)C[C@@H]1[C@@H](O)[C@H](O)[C@@H](CO)N1CCCC` [Example 49, 2,5-(Butylimino)-1-(dibutylamino)-1,2,5-trideoxy-D-mannitol], for which, on α-Glucosidase (yeast), the inhibition at 100 µM is -12.6%. In addition, the inhibition at 1000 µM at α-Glucosidase (yeast) is -20.5%. Further, the “Percent inhibition” value with β-Glucosidase (almond) [1] (100 μM) is recorded as -5.3%; with β-Glucosidase (almond) [1] (1000 μM), 0.2%; in the assay on β-Glucosidase (almond) [2] (100 μM), 10.9%; with β-Glucosidase (almond) [2] (1000 μM) it was 18.8%.
